# According to US11242361B2 (Proteostasis Therapeutics, Inc., priority 2013, dated 2022):
# Target: USP14 (Homo sapiens (Human), UniProt P54578)
# Test: USP14 Inhibition Assay
# Format: biochemical
# Conditions: average value from a minimum of two experimental determinations, read-out: IC50 Category
# Procedure: Example 17: USP14 Inhibition Assay
# “I” in the Table below designates an IC50 of >5 μM, “II” in the Table below designates and IC50 between 0.5 and 5 μM, and “III” designates an IC50<0.5 μM. The IC50 values in the Table below represent the average value from a minimum of two experimental determinations.
# Chain of USP14 (P54578 whole entry, looked up): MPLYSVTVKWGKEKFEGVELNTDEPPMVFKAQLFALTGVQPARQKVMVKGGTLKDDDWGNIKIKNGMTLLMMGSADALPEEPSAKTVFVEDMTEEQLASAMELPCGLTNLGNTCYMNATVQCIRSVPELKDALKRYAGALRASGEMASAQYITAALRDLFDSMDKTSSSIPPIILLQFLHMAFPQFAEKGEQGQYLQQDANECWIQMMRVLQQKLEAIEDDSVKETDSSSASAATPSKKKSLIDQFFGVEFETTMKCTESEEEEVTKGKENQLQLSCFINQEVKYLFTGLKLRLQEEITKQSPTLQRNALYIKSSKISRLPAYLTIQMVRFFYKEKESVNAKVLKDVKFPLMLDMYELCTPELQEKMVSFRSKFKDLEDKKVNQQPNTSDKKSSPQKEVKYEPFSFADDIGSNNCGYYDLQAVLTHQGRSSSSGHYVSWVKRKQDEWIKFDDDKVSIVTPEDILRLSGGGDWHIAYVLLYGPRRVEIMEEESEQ
row,Structure (SMILES),IC50 [nM]
1,Cc1c(C(=O)CN2CCCC2)c2ccccc2n1-c1ccc(Cl)cc1 [Compound 88],< 500
2,O=C(CN1CCCCC1)c1c(C2CC2)n(-c2ccc(Cl)cc2)c2ccccc12 [Compound 399],> 5000
3,"Cc1c(C(=O)CN2CCCCC2)c2ncc(CCN3CCCC3)cc2n1-c1ccc(Cl)cc1 [Compound 346, 1-(1-(4-Chlorophenyl)-2-methyl-6-(2-(pyrrolidin-1-yl)ethyl)-1H-pyrrolo[3,2-b]pyridin-3-yl)-2-(piperidin-1-yl)ethan-1-one]",< 500
4,Cc1c(C(=O)CN2CCC(O)CC2)c2ccccc2n1-c1ccc(C#N)cc1 [Compound 337],< 500
5,O=C(CN1CCCCC1)c1cn(-c2ccc(Cl)cc2)c2ccccc12 [Compound 31],> 5000
6,"Cc1c(C(=O)CN2CCC(O)CC2)c2ncc(CCNS(C)(=O)=O)cc2n1-c1ccc(Cl)cc1 [Compound 342, N-(2-(1-(4-Chlorophenyl)-3-(2-(4-hydroxypiperidin-1-yl)acetyl)-2-methyl-1H-pyrrolo[3,2-b]pyridin-6-yl)ethyl)methanesulfonamide]",< 500
7,COc1cc2c(C(=O)CN3CCCCC3)c(C)n(-c3ccc(C#N)cc3)c2cc1OC(F)(F)F [Compound 193],500 to 5000
8,COc1cnc2c(C(=O)CN3CCC(CN)CC3)c(C)n(-c3ccc(C#N)cc3)c2c1 [Compound 369],< 500
9,Cc1c(C(=O)CN2CCCCC2)c2ccccc2n1-c1ccc(Cl)cc1 [Compound 87],< 500
10,Cc1c(C(=O)CN2CCC(O)CC2)c2ccccc2n1-c1ccccn1 [Compound 397],> 5000
11,Cc1c(C(=O)CN2CCC(O)CC2)c2ncccc2n1-c1ccc(C#N)cc1 [Compound 335],< 500
12,Cc1c(C(=O)CN2[C@@H](C)CCC[C@@H]2C)c2ncc(Br)cc2n1-c1ccc(C#N)cc1 [Compound 374],500 to 5000
13,COC(=O)c1ccc2c(C(=O)CN3CCCCC3)c(C)n(-c3ccc(Cl)cc3)c2c1 [Compound 171],< 500
14,Cc1c(C(=O)CN2CCC(F)(F)C2)c2ncc(Br)cc2n1-c1ccc(C#N)cc1 [Compound 324],> 5000
15,Cc1c(C(=O)CN2CCC(O)CC2)c2ncc(/C=C/c3nnc(C(F)(F)F)o3)cc2n1-c1ccc(C#N)cc1 [Compound 321],< 500
16,Cc1c(C(=O)CN2CCC(NC(=O)OC(C)(C)C)CC2)c2ccccc2n1-c1ccc(Cl)cc1 [Compound 142],500 to 5000
17,Cc1c(C(=O)CN2CCOCC2)c2ncc(Br)cc2n1-c1ccc(C#N)cc1 [Compound 329],> 5000
18,COC1CCN(CC(=O)c2c(C)n(-c3ccc(C#N)cc3)c3cc(Br)cnc23)CC1 [Compound 311],< 500

row,Structure (SMILES),IC50 [nM]
1,Cc1c(C(=O)CN2C[C@H](C)C[C@@H](C)C2)c2ncc(Br)cc2n1-c1ccc(C#N)cc1 [Compound 348],> 5000
2,Cc1c(C(=O)CN2CCC(O)CC2)c2ccccc2n1-c1ccc(F)c(F)c1 [Compound 391],500 to 5000
3,Cc1c(C(=O)CN2CCNC(=O)C2)c2ncc(Br)cc2n1-c1ccc(C#N)cc1 [Compound 344],> 5000
4,COCCOc1cnc2c(C(=O)CN3CCC(OC)CC3)c(C)n(-c3ccc(Cl)cc3)c2c1 [Compound 363],< 500
5,"Cc1c(C(=O)CN2CCCCC2)c2ccc(O)cc2n1-c1ccc(Cl)cc1 [Compound 148, 1-(1-(4-Chlorophenyl)-6-hydroxy-2-methyl-1H-indol-3-yl)-2-(piperidin-1-yl)ethan-1-one]",500 to 5000
6,Cc1c(C(=O)CN2CC3(COC3)C2)c2ncc(Br)cc2n1-c1ccc(C#N)cc1 [Compound 343],> 5000
7,Cc1c(C(=O)CN2CCCCC2)c2ncccc2n1-c1ccc(Cl)cc1 [Compound 161],< 500
8,Cc1c(C(=O)CN2CC[C@H](O)[C@@H](O)C2)c2ncc(Br)cc2n1-c1ccc(C#N)cc1 [Compound 328],> 5000
9,"COC(=O)c1ccc2c(C(O)CN3CCCCC3)c(C)n(-c3ccc(Cl)cc3)c2c1 (stereo not drawn) [Compound 126, Methyl 1-(4-Chlorophenyl)-3-(1-hydroxy-2-(piperidin-1-yl)ethyl)-2-methyl-1H-indole-6-carboxylate]",> 5000
10,"Cc1c(C(=O)CN2CCCCC2)c2ncccc2n1-c1ccc(C#N)nc1 [Compound 181, 5-(2-Methyl-3-(2-(piperidin-1-yl)acetyl)-1H-pyrrolo[3,2-b]pyridin-1-yl)picolinonitrile]",< 500
11,Cc1c(C(=O)CN2CCCC[C@@H]2C)c2ncc(Br)cc2n1-c1ccc(C#N)cc1 [Compound 308],< 500
12,"Cc1c(C(O)CN2CCCCC2)c2ccccc2n1-c1ccc(Cl)cc1 (stereo not drawn) [Compound 106, 1-(1-(4-Chlorophenyl)-2-methyl-1H-indol-3-yl)-2-(piperidin-1-yl)ethan-1-ol]",> 5000
13,Cc1c(C(=O)CN2CCC(O)CC2)c2ncc(C(F)(F)F)cc2n1-c1ccc(C#N)cc1 [Compound 302],< 500
14,Cc1c(C(=O)CN2CCC(O)CC2)c2ccccc2n1-c1ccc(Cl)cn1 [Compound 398],500 to 5000
15,COc1cccc2c(C(=O)CN3CCCCC3)c(C)n(-c3ccc(C#N)cc3)c12 [Compound 146],500 to 5000
16,Cc1c(C(=O)CN2CCC(O)CC2)c2ccccc2n1-c1ccc(C#N)nc1 [Compound 393],500 to 5000
17,"Cc1c(C(=O)CN2CCCCC2)c2ccc(CO[Si](C)(C)C(C)(C)C)cc2n1-c1ccc(Cl)cc1 [Compound 153, 1-(6-(((tert-Butyldimethylsilyl)oxy)methyl)-1-(4-chlorophenyl)-2-methyl-1H-indol-3-yl)-2-(piperidin-1-yl)ethan-1-one]",500 to 5000
18,Cc1c(C(=O)CN2CCCCC2)c2ccccc2n1-c1ccc([N+](=O)[O-])cc1 [Compound 164],< 500

# More lines, now with the values ahead:
row,IC50 [nM],Structure (SMILES)
1,500 to 5000,Cc1c(C(=O)CN2CCC(CO)CC2)c2ncc(Br)cc2n1-c1ccc(C#N)cc1 [Compound 312]
2,< 500,"Cc1c(C(=O)CN2CCCCC2)c2ncc(CN3CCCC3)cc2n1-c1ccc(C#N)cc1 [Compound 360, 4-(2-Methyl-3-(2-(piperidin-1-yl)acetyl)-6-(pyrrolidin-1-ylmethyl)-1H-pyrrolo[3,2-b]pyridin-1-yl)benzonitrile]"
3,< 500,Cc1c(C(=O)CN2CCCCC2)c2ccc(F)cc2n1-c1ccc(C#N)cc1 [Compound 176]
4,< 500,COC(CNC(=O)CCc1cnc2c(C(=O)CN3CCCCC3)c(C)n(-c3ccc(C#N)cc3)c2c1)OC [Compound 296]
5,< 500,"Cc1c(C(=O)CN2CCCCC2)c2ncc(Br)cc2n1-c1ccc(C#N)cc1 [Compound 297, 4-(6-Bromo-2-methyl-3-(2-(piperidin-1-yl)acetyl)-1H-pyrrolo[3,2-b]pyridin-1-yl)benzonitrile]"
6,< 500,"CCNC(=O)Cc1cnc2c(C(=O)CN3CCCCC3)c(C)n(-c3ccc(C#N)cc3)c2c1 [Compound 383, 2-(1-(4-Cyanophenyl)-2-methyl-3-(2-(piperidin-1-yl)acetyl)-1H-pyrrolo[3,2-b]pyridin-6-yl)-N-ethylacetamide]"
7,< 500,Cc1c(C(=O)CN2CCCCC2)c2nc(F)ccc2n1-c1ccc(C#N)cc1 [Compound 165]
8,< 500,"CCOC(=O)CCc1cc2c(nc1C)c(C(=O)CN1CCCCC1)c(C)n2-c1ccc(C#N)cc1 [Compound 200, Ethyl 3-(1-(4-Cyanophenyl)-2,5-dimethyl-3-(2-(piperidin-1-yl)acetyl)-1H-pyrrolo[3,2-b]pyridin-6-yl)propanoate]"
9,< 500,Cc1c(C(=O)CN2CCCCC2)c2ncc(Cl)cc2n1-c1ccc(C#N)cc1 [Compound 385]
10,< 500,Cc1cc2c(nc1C)c(C(=O)CN1CCCCC1)c(C)n2-c1ccc(C#N)cc1 [Compound 195]
11,< 500,"Cc1c(C(=O)CN2CCCCC2)c2ccc(CCC(N)=O)cc2n1-c1ccc(C#N)cc1 [Compound 194, 3-(1-(4-Cyanophenyl)-2-methyl-3-(2-(piperidin-1-yl)acetyl)-1H-indol-6-yl)propanamide]"
12,< 500,C#CCCCNC(=O)CCc1cnc2c(C(=O)CN3CCC(O)CC3)c(C)n(-c3ccc(C#N)cc3)c2c1 [Compound 361]
13,< 500,"Cc1c(C(=O)CN2CCCCC2)c2ccc(CC(=O)O)cc2n1-c1ccc(C#N)cc1 [Compound 198, 2-(1-(4-Cyanophenyl)-2-methyl-3-(2-(piperidin-1-yl)acetyl)-1H-indol-6-yl)acetic Acid]"
14,< 500,"COc1cnc2c(C(=O)CN3CCCCC3)c(C)n(-c3ccc(C#N)cc3)c2c1 [Compound 326, 4-(6-Methoxy-2-methyl-3-(2-(piperidin-1-yl)acetyl)-1H-pyrrolo[3,2-b]pyridin-1-yl)benzonitrile]"
15,< 500,"Cc1c(C(=O)CN2CCCCC2)c2ncc(CC(=O)NC3CC3)cc2n1-c1ccc(C#N)cc1 [Compound 381, 2-(1-(4-Cyanophenyl)-2-methyl-3-(2-(piperidin-1-yl)acetyl)-1H-pyrrolo[3,2-b]pyridin-6-yl)-N-cyclopropylacetamide]"
16,< 500,"CCN(CC)C(=O)CCc1cc2c(nc1C)c(C(=O)CN1CCCCC1)c(C)n2-c1ccc(C#N)cc1 [Compound 204, 3-(1-(4-Cyanophenyl)-2,5-dimethyl-3-(2-(piperidin-1-yl)acetyl)-1H-pyrrolo[3,2-b]pyridin-6-yl)-N,N-diethylpropanamide]"
17,> 5000,Cc1c(C(=O)CN2CCC2)c2ncc(Br)cc2n1-c1ccc(C#N)cc1 [Compound 325]
18,< 500,"CCOC(=O)Cc1cnc2c(C(=O)CN3CCCCC3)c(C)n(-c3ccc(C#N)cc3)c2c1 [Compound 384, Ethyl 2-(1-(4-Cyanophenyl)-2-methyl-3-(2-(piperidin-1-yl)acetyl)-1H-pyrrolo[3,2-b]pyridin-6-yl)acetate]"
19,< 500,Cc1cnc2c(C(=O)CN3CCC(F)CC3)c(C)n(-c3ccc(C#N)cc3)c2c1 [Compound 190]
20,< 500,COCCOc1cnc2c(C(=O)CN3CCCCC3)c(C)n(-c3ccc(Cl)cc3)c2c1 [Compound 364]
21,< 500,"COc1ccc2c(n1)c(C(=O)CN1CCCCC1)c(C)n2-c1ccc(C#N)cc1 [Compound 177, 4-(5-Methoxy-2-methyl-3-(2-(piperidin-1-yl)acetyl)-1H-pyrrolo[3,2-b]pyridin-1-yl)benzonitrile]"
